Assay results reported in publication PMC5862592, “CDK8/19 inhibition induces premature G1/S transition and ATR-dependent cell death in prostate cancer cells” (Oncotarget, 2018).
Where two headings read alike, the source gives them in different places.

How the values were obtained:
Test in all cases: biochemical
Parameters in all cases: KINOMEscan active site-directed competition binding assay (DiscoveRx), 456 kinases, per cent of control at 300 nM
Conditions in all cases: read-out: Percent of Control (%)
MARK1 = MARK1 (Homo sapiens, UniProt Q9P0L2)
Procedure: (§1) Kinase selectivity of T-474 and T-418 was evaluated at 300 nmol/L using a panel of 456 kinases at DiscoveRx (KINOMEscan). The platform employs an active site-directed competition binding assay to quantitatively measure interactions between test compounds and kinases. […] In VCaP prostate cancer cells, treatment with T-474 or T-418 suppressed the phosphorylation of the known CDK8 substrate STAT1 at Ser727 both in the absence and in the presence of IFN-γ (Figure 1B), which stimulates CDK8-mediated STAT1 phosphorylation.

PKAC-beta = molecular target: T1, PKAC-beta (Homo sapiens, UniProt P22694)
T1 construct: gene PRKACB
Procedure: as §1

CAMK2B = CAMK2B (Homo sapiens, UniProt Q13554)
Sequence of CAMK2B (Q13554 whole entry): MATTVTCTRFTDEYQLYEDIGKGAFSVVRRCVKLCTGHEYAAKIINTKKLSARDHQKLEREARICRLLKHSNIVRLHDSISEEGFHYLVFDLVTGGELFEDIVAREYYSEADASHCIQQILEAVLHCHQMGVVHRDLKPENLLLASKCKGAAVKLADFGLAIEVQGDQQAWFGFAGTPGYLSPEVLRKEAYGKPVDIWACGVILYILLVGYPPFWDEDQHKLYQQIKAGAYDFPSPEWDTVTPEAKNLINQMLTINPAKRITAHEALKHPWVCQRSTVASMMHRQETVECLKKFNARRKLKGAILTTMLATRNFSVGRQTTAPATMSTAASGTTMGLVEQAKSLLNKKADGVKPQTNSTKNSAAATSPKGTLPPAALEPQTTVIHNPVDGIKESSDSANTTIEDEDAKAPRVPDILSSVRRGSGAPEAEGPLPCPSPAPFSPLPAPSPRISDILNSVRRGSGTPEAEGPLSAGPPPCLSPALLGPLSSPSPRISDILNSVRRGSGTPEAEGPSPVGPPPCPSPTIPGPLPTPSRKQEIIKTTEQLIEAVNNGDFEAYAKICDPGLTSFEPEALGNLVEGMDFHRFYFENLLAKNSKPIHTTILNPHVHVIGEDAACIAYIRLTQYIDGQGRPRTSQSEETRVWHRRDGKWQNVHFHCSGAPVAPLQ
Procedure: as §1

PIK3CA = PIK3CA (Homo sapiens, UniProt P42336)
Procedure: as §1

AURKC = AURKC (Homo sapiens, UniProt Q9UQB9)
Sequence of AURKC (Q9UQB9 whole entry): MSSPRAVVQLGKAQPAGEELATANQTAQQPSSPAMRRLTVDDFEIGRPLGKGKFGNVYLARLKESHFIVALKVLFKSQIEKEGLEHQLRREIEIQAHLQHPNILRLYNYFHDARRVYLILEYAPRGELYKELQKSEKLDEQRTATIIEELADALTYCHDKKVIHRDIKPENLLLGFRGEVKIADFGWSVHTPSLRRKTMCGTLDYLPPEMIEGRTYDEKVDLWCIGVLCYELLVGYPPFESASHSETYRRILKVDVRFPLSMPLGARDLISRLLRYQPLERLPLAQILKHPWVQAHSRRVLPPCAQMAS
Procedure: as §1

MYO3A = MYO3A (Homo sapiens, UniProt Q8NEV4)
Procedure: as §1

GSK3B = GSK3B (Homo sapiens, UniProt P49841)
Sequence of GSK3B (P49841 whole entry): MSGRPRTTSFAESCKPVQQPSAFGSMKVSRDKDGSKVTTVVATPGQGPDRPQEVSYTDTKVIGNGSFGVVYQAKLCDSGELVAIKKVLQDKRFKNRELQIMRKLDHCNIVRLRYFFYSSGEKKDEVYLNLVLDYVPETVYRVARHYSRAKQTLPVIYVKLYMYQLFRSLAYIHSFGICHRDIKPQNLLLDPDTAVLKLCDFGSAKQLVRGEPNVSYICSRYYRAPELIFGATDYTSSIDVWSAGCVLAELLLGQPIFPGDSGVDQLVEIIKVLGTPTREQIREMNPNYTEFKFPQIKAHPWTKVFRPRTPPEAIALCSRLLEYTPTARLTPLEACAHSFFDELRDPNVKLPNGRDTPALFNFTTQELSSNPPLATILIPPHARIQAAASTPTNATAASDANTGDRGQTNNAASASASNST
Procedure: as §1

AMPK-alpha1 = molecular target: T2, AMPK-alpha1 (Homo sapiens, UniProt Q13131)
T2 construct: gene PRKAA1
T2 sequence (Q13131 whole entry): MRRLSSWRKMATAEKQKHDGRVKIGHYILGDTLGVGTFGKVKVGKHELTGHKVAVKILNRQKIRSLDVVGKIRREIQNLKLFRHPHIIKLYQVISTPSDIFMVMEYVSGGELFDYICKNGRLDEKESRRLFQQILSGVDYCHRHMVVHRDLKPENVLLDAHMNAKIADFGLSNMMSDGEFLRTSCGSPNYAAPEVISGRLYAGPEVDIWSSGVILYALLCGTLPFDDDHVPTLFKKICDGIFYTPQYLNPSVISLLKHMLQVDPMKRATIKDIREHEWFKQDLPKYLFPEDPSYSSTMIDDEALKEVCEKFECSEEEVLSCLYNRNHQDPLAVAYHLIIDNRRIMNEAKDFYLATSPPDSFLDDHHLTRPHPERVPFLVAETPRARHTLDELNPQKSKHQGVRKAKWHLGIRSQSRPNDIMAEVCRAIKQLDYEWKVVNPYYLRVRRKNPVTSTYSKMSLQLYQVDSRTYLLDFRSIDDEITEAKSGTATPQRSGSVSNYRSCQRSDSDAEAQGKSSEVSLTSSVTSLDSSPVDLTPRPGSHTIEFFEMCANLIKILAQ
Procedure: as §1

AURKB = AURKB (Homo sapiens, UniProt Q96GD4)
Sequence of AURKB (Q96GD4 whole entry): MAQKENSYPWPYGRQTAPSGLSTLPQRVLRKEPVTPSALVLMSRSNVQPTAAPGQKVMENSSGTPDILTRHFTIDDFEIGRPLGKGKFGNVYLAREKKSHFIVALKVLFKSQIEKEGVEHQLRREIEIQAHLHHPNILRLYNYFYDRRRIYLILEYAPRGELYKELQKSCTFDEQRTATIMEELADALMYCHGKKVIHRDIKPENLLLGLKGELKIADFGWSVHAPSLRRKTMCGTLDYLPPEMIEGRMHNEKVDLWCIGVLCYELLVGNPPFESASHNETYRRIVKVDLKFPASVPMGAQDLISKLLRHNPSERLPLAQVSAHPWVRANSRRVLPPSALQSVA
Procedure: as §1

[1] = molecular target: T3, ABL1(E255K)-phosphorylated (Homo sapiens, UniProt P00519, E255K)
T3 construct: phosphorylated
Procedure: as §1

PIP5K2C = molecular target: T4, PIP5K2C (Homo sapiens, UniProt Q8TBX8)
T4 construct: gene PIP4K2C
T4 sequence (Q8TBX8 whole entry): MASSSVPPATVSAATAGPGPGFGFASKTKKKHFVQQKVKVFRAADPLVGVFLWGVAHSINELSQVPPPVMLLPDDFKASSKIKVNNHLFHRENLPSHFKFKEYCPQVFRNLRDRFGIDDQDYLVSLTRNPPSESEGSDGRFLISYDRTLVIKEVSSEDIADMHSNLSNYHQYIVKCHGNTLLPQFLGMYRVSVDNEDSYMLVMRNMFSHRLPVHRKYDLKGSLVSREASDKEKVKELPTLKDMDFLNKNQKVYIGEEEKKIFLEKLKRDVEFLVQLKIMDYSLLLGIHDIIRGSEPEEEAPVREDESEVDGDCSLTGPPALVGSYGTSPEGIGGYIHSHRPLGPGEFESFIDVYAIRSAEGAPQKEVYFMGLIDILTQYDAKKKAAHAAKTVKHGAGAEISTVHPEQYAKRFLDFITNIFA
Procedure: as §1

RET(V804L) = RET(V804L) (Homo sapiens, UniProt P07949, V804L)
Procedure: as §1

CDKL2 = CDKL2 (Homo sapiens, UniProt Q92772)
Sequence of CDKL2 (Q92772 whole entry): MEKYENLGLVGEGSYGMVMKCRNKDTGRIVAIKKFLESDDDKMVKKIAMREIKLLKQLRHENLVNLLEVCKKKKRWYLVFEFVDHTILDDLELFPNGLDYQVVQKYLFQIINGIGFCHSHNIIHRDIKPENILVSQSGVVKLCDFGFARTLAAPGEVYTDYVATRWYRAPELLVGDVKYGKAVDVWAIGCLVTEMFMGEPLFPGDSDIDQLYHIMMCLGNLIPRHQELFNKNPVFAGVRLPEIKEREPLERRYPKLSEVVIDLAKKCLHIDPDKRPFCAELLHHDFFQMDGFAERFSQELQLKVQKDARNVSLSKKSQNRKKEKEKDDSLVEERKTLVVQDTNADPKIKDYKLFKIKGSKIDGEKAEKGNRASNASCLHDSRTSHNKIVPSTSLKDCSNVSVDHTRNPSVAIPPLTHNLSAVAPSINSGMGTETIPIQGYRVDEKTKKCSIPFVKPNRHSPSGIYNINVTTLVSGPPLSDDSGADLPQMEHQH
Procedure: as §1

STK16 = STK16 (Homo sapiens, UniProt O75716)
Procedure: as §1

YSK4 = molecular target: T5, YSK4 (Homo sapiens, UniProt Q56UN5)
T5 construct: gene MAP3K19
Procedure: as §1

PHKG2 = PHKG2 (Homo sapiens, UniProt P15735)
Sequence of PHKG2 (P15735 whole entry): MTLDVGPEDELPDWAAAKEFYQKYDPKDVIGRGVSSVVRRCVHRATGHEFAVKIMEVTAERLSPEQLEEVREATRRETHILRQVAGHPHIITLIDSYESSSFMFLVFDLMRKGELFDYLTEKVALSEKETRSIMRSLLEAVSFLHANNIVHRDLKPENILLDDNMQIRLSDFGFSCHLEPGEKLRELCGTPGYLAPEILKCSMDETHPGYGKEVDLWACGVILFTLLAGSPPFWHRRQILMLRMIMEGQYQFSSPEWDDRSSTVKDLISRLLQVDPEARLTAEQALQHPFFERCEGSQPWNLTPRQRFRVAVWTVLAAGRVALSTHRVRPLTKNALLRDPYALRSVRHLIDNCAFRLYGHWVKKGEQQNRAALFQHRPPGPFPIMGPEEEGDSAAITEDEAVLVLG
Procedure: as §1

CDK8 = CDK8 (Homo sapiens, UniProt P49336)
Sequence of CDK8 (P49336 whole entry): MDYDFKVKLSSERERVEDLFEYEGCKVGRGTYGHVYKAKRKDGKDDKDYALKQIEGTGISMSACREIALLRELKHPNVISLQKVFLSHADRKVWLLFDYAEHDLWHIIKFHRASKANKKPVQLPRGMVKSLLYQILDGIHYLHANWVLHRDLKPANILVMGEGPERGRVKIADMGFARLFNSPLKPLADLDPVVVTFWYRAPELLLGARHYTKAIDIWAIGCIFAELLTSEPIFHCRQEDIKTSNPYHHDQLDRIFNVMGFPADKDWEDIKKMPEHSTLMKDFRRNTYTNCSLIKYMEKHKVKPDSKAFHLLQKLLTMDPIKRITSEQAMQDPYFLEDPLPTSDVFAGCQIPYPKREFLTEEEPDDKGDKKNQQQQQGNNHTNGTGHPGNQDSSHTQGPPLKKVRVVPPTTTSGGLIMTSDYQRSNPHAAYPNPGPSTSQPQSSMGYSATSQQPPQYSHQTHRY
Procedure: as §1

SGK2 = SGK2 (Homo sapiens, UniProt Q9HBY8)
Sequence of SGK2 (Q9HBY8 whole entry): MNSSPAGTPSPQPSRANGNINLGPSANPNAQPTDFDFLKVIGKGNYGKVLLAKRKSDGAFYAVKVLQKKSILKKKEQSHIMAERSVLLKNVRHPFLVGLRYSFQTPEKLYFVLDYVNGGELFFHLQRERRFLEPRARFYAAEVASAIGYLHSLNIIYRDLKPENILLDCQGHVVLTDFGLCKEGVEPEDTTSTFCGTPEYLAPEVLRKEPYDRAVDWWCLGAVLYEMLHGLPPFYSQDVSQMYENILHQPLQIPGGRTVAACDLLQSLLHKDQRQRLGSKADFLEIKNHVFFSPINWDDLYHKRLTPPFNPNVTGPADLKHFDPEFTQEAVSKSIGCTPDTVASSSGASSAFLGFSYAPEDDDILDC
Procedure: as §1

LOK = molecular target: T6, LOK (Homo sapiens, UniProt O94804)
T6 construct: gene STK10
Procedure: as §1

DAPK3 = DAPK3 (Homo sapiens, UniProt O43293)
Sequence of DAPK3 (O43293 whole entry): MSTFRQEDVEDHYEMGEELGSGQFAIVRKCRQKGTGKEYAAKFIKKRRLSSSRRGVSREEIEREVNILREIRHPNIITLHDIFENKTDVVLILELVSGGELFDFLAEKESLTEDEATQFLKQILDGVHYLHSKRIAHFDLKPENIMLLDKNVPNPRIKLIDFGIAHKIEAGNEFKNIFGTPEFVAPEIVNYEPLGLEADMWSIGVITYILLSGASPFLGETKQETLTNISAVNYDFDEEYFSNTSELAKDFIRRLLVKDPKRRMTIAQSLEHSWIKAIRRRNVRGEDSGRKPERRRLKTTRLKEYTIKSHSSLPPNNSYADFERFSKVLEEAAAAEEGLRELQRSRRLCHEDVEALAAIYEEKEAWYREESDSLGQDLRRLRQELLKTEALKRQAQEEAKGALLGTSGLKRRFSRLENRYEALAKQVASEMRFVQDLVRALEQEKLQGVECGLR
Procedure: as §1

KIT(A829P) = KIT(A829P) (Homo sapiens, UniProt P10721, A829P)
Procedure: as §1

ULK2 = ULK2 (Homo sapiens, UniProt Q8IYT8)
Procedure: as §1

O=C(/C=C/c1cnccc1-c1ccc(F)cc1)Nc1ccc(CCc2nnco2)cc1 [T-418, (2E)-3-(4-(4-fluorophenyl)pyridin-3-yl)-N-(4-(2-(1,3,4-oxadiazol-2-yl)ethyl)phenyl)acrylamide]
remaining binding at 0.3 µM (MARK1; sheet T-418): 100% | remaining binding at 0.3 µM (PKAC-beta; sheet T-418): 88% | remaining binding at 0.3 µM (CAMK2B; sheet T-418): 84% | remaining binding at 0.3 µM (PIK3CA; sheet T-418): 84% | remaining binding at 0.3 µM (AURKC; sheet T-418): 100% | remaining binding at 0.3 µM (MYO3A; sheet T-418): 100% | remaining binding at 0.3 µM (GSK3B; sheet T-418): 98% | remaining binding at 0.3 µM (AMPK-alpha1; sheet T-418): 100% | remaining binding at 0.3 µM (AURKB; sheet T-418): 100% | remaining binding at 0.3 µM ([1]; sheet T-418): 83% | remaining binding at 0.3 µM (PIP5K2C; sheet T-418): 74% | remaining binding at 0.3 µM (RET(V804L); sheet T-418): 81% | remaining binding at 0.3 µM (CDKL2; sheet T-418): 100% | remaining binding at 0.3 µM (STK16; sheet T-418): 86% | remaining binding at 0.3 µM (YSK4; sheet T-418): 100% | remaining binding at 0.3 µM (PHKG2; sheet T-418): 71% | remaining binding at 0.3 µM (CDK8; sheet T-418): 48% | remaining binding at 0.3 µM (SGK2; sheet T-418): 94% | remaining binding at 0.3 µM (LOK; sheet T-418): 93% | remaining binding at 0.3 µM (DAPK3; sheet T-418): 83% | remaining binding at 0.3 µM (KIT(A829P); sheet T-418): 100% | remaining binding at 0.3 µM (ULK2; sheet T-418): 100%

Cc1ncccc1Oc1sc(C(N)=O)c2c1-c1c(cnn1C)CC2 [T-474, 1-methyl-8-((2-methylpyridin-3-yl)oxy)-4,5-dihydro-1H-thieno[3,4-g]indazole-6-carboxamide]
remaining binding at 0.3 µM (MARK1): 81% | remaining binding at 0.3 µM (PKAC-beta): 100% | remaining binding at 0.3 µM (CAMK2B): 99% | remaining binding at 0.3 µM (PIK3CA): 92% | remaining binding at 0.3 µM (AURKC): 100% | remaining binding at 0.3 µM (MYO3A): 100% | remaining binding at 0.3 µM (GSK3B): 94% | remaining binding at 0.3 µM (AMPK-alpha1): 100% | remaining binding at 0.3 µM (AURKB): 100% | remaining binding at 0.3 µM [1]: 83% | remaining binding at 0.3 µM (PIP5K2C): 74% | remaining binding at 0.3 µM (RET(V804L)): 94% | remaining binding at 0.3 µM (CDKL2): 100% | remaining binding at 0.3 µM (STK16): 88% | remaining binding at 0.3 µM (YSK4): 100% | remaining binding at 0.3 µM (PHKG2): 88% | remaining binding at 0.3 µM (CDK8): 9.8% | remaining binding at 0.3 µM (SGK2): 95% | remaining binding at 0.3 µM (LOK): 100% | remaining binding at 0.3 µM (DAPK3): 100% | remaining binding at 0.3 µM (KIT(A829P)): 99% | remaining binding at 0.3 µM (ULK2): 100%
